Source: paper PMC8580996, “2-Oxoglutarate derivatives can selectively enhance or inhibit the activity of human oxygenases” (Nature Communications, 2021)
Values joined by “and” are separate entries in the source; they are usually repeats but may differ in a detail not shown here. Identical values can stand only once.

Biological target: FIH (Homo sapiens, UniProt Q9NWT6)
Assay: FIH steady-state kinetic parameters (SPE-MS, initial hydroxylation rates)
Format: biochemical
Set-up: slope of initial reaction rate: unit not given here
Description: Final 2OG/2OG derivative concentrations are given in Supplementary Figs. 5 and 6. Reactions were monitored with a rate of ~1 sample/40 s using the same SPE-MS configuration as described above. Data were analyzed as described above and the slopes of the initial reaction rates (Supplementary Figs. 5 and 6) fitted to a Michaelis–Menten plot using non-linear regression (GraphPad Prism 5). […]
determine kinetic parameters for 2OG derivatives (continues on the following page). Maximum velocities (vapp ) and Michaelis constants (Kapp) of FIH were determined in independent triplicates for 2OG and the 2OG […]
SPE-MS as described in the Methods section. […]
acid (LAA), and 20 μM ammonium iron(II) sulfate hexahydrate (FAS, (NH4)2Fe(SO4)2·6H2O) in buffer (50 mM […]
Tris, 50 mM NaCl, pH 7.5, 20° C). […]
data are provided as a Source Data file. […]
concentrations of 2OG; (b) hydroxylation rates used to determine kinetic parameters of FIH for 2OG; (c) time […]
3-methyl-2OG (1); (d) hydroxylation rates used to determine kinetic parameters of FIH for 1; (e) time course of […]
2OG (12); (f) hydroxylation rates used to determine kinetic parameters of FIH for 12; (g) time course of the FIH- […]
(h) hydroxylation rates used to determine kinetic parameters of FIH for 14; (i) time course of the FIH-catalyzed […]
(carboxycarbonyl)cyclopentane-1-carboxylic acid (22); (j) hydroxylation rates used to determine kinetic parameters of FIH for 22.
Supplementary Figure 6. Hydroxylation rates of FIH-catalyzed CA1-20 hydroxylations used to determine kinetic parameters for 2OG derivatives (continues on the following page). Maximum velocities (vapp ) and […]
ammonium iron(II) sulfate hexahydrate (FAS, (NH4)2Fe(SO4)2·6H2O) in buffer (50 mM Tris, 50 mM NaCl, pH […]
Source data are provided as a Source […]
of 2OG; (b) hydroxylation rates used to determine kinetic parameters of FIH for 2OG; (c) time course of the FIH-catalyzed hydroxylation reaction of the CA1-20 peptide for the shown concentrations of 3-methyl-2OG (1); (d) hydroxylation rates used to determine kinetic parameters of FIH for 1; (e) time course of the FIH -catalyzed hydroxylation reaction of the CA 1-20 peptide for the shown concentrations of 4 -methyl-2OG (12); (f) hydroxylation rates used to determine kinetic parameters of FIH for 12; (g) time course of the FIH-catalyzed hydroxylation reaction of the CA1-20 peptide for the shown concentrations of 4-ethyl-2OG (14); (h) hydroxylation rates used to determine kinetic parameters of FIH for 14; (i) time course of the FIH-catalyzed hydroxylation reaction of the CA1-20 peptide for the shown concentrations of 3-(carboxycarbonyl)cyclopentane-1-carboxylic acid (22); (j) hydroxylation rates used to determine kinetic parameters of FIH for 22.

Sequence of FIH (Q9NWT6 whole entry): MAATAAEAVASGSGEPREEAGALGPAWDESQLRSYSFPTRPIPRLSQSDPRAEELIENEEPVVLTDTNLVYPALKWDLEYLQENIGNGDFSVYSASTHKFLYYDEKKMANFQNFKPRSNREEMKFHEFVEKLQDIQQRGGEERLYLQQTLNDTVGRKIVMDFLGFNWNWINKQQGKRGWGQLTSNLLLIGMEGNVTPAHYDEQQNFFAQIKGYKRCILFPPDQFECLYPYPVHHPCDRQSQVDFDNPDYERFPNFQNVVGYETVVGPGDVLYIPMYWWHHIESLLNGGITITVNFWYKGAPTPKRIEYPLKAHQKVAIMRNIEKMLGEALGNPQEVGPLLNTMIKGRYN

O=C(O)C(=O)C1CCC(C(=O)O)C1 (stereo not shown) [compound 22, 3-(carboxycarbonyl)cyclopentane-1-carboxylic acid]
SPE-MS determined concentration of hydroxylated HIF-1a peptide (4 uM compound 22, time 2.098 min): 0.04779 µM and 0.05783 µM and 0.03772 µM | SPE-MS determined concentration of hydroxylated HIF-1a peptide (4 uM compound 22, time 2.797 min): 0.05438 µM and 0.0588 µM and 0.03391 µM | SPE-MS determined concentration of hydroxylated HIF-1a peptide (4 uM compound 22 as cosubstrate, time 3.49667 min, replicates 1-3): 0.05919 µM and 0.07205 µM and 0.04053 µM | SPE-MS determined concentration of hydroxylated HIF-1a peptide (8 uM compound 22, time 0.699833 min): 0.02809 µM and 0.04706 µM and 0.04281 µM | SPE-MS determined concentration of hydroxylated HIF-1a peptide (8 uM compound 22, time 2.098 min): 0.0572 µM and 0.06337 µM and 0.07945 µM | SPE-MS determined concentration of hydroxylated HIF-1a peptide (8 uM compound 22, time 2.797 min): 0.05834 µM and 0.07508 µM and 0.08857 µM | SPE-MS determined concentration of hydroxylated HIF-1a peptide (8 uM compound 22 as cosubstrate, time 3.49667 min, replicates 1-3): 0.08563 µM and 0.07413 µM and 0.09575 µM | SPE-MS determined concentration of hydroxylated HIF-1a peptide (8 uM compound 22 as cosubstrate, time 4.19733 min, replicates 1-3): 0.0782 µM | SPE-MS determined concentration of hydroxylated HIF-1a peptide (16 uM compound 22, time 0.699833 min): 0.06076 µM and 0.05382 µM and 0.0426 µM | SPE-MS determined concentration of hydroxylated HIF-1a peptide (16 uM compound 22, time 2.098 min): 0.08485 µM and 0.09545 µM and 0.07537 µM | SPE-MS determined concentration of hydroxylated HIF-1a peptide (16 uM compound 22, time 2.797 min): 0.09668 µM and 0.1092 µM and 0.09109 µM | SPE-MS determined concentration of hydroxylated HIF-1a peptide (16 uM compound 22 as cosubstrate, time 3.49667 min, replicates 1-3): 0.105 µM and 0.1268 µM and 0.09176 µM | SPE-MS determined concentration of hydroxylated HIF-1a peptide (32 uM compound 22, time 0.699833 min): 0.06848 µM and 0.06274 µM and 0.0479 µM | SPE-MS determined concentration of hydroxylated HIF-1a peptide (32 uM compound 22, time 2.098 min): 0.1104 µM and 0.1151 µM and 0.1012 µM | SPE-MS determined concentration of hydroxylated HIF-1a peptide (32 uM compound 22, time 2.797 min): 0.1309 µM and 0.1405 µM and 0.1242 µM | SPE-MS determined concentration of hydroxylated HIF-1a peptide (32 uM compound 22 as cosubstrate, time 3.49667 min, replicates 1-3): 0.1431 µM and 0.1593 µM and 0.14 µM | SPE-MS determined concentration of hydroxylated HIF-1a peptide (64 uM compound 22, time 0 min): 0.02766 µM and 0.02 µM and 0.02798 µM | SPE-MS determined concentration of hydroxylated HIF-1a peptide (64 uM compound 22, time 0.699833 min): 0.06638 µM and 0.06107 µM and 0.07538 µM | SPE-MS determined concentration of hydroxylated HIF-1a peptide (64 uM compound 22, time 2.098 min): 0.1181 µM and 0.1293 µM and 0.1259 µM | SPE-MS determined concentration of hydroxylated HIF-1a peptide (64 uM compound 22, time 2.797 min): 0.146 µM and 0.1627 µM and 0.1536 µM | SPE-MS determined concentration of hydroxylated HIF-1a peptide (64 uM compound 22 as cosubstrate, time 3.49667 min, replicates 1-3): 0.169 µM and 0.1906 µM and 0.171 µM | SPE-MS determined concentration of hydroxylated HIF-1a peptide (128 uM compound 22, time 0.699833 min): 0.06651 µM and 0.09916 µM and 0.08534 µM | SPE-MS determined concentration of hydroxylated HIF-1a peptide (128 uM compound 22, time 2.098 min): 0.1375 µM and 0.1676 µM and 0.1537 µM | SPE-MS determined concentration of hydroxylated HIF-1a peptide (128 uM compound 22, time 2.797 min): 0.162 µM and 0.1955 µM and 0.1789 µM | SPE-MS determined concentration of hydroxylated HIF-1a peptide (128 uM compound 22 as cosubstrate, time 3.49667 min, replicates 1-3): 0.1878 µM and 0.2084 µM and 0.2042 µM | SPE-MS determined concentration of hydroxylated HIF-1a peptide (256 uM compound 22, time 0 min): 0.05949 µM and 0.04197 µM | SPE-MS determined concentration of hydroxylated HIF-1a peptide (256 uM compound 22, time 0.699833 min): 0.1 µM and 0.09439 µM | SPE-MS determined concentration of hydroxylated HIF-1a peptide (256 uM compound 22, time 2.098 min): 0.1712 µM and 0.1647 µM | SPE-MS determined concentration of hydroxylated HIF-1a peptide (256 uM compound 22, time 2.797 min): 0.1988 µM and 0.1857 µM | SPE-MS determined concentration of hydroxylated HIF-1a peptide (256 uM compound 22 as cosubstrate, time 3.49667 min, replicates 2-3 (replicate 1 empty)): 0.2377 µM and 0.2176 µM | slope of initial reaction rate (CA1-20, 16 μM 22): 0.001019 and 0.001398 and 0.001783 | slope of initial reaction rate (CA1-20, 32 μM 22): 0.002274 and 0.002243 and 0.002771 | slope of initial reaction rate (CA1-20, 64 μM 22): 0.003753 and 0.003305 and 0.003867 | slope of initial reaction rate (CA1-20, 128 μM 22): 0.0046 and 0.003872 and 0.004223 | slope of initial reaction rate (CA1-20, 256 μM 22): 0.004108 and 0.004197 and 0.004611 | FIH Kmapp (CA1–20 substrate): 39 µM | slope of initial reaction rate (HIF-1a788-822, 8 μM 22): 0.000249 and 0.000403 and 0.000322 | slope of initial reaction rate (HIF-1a788-822, 16 μM 22): 0.000332 and 0.000535 and 0.000447 | slope of initial reaction rate (HIF-1a788-822, 32 μM 22): 0.000561 and 0.000718 and 0.000685 | slope of initial reaction rate (HIF-1a788-822, 64 μM 22): 0.000686 and 0.000843 and 0.000711 | slope of initial reaction rate (HIF-1a788-822, 128 μM 22): 0.000874 and 0.000824 and 0.000795 | slope of initial reaction rate (HIF-1a788-822, 256 μM 22): 0.000833 and 0.000843 | FIH Kmapp (HIF-1α788–822 substrate): 15 µM
